Columns and labels:
Format in all cases: in vivo
[1] = system: Amaranthus retroflexus; experiment: Post-emergence herbicidal activity, glasshouse pot test; parameters: key: 0 = no damage to plant, 5 = total damage to plant; details: Application post-emergence, rate 1000 g/ha, evaluated after 13 days
Method in brief: (§1)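 Seeds sown in standard soil in pots, grown 8 days in glasshouse (24/16 °C day/night, 14 h light, 65% humidity), then sprayed with aqueous solution from active ingredient formulated in acetone/water (50:50) with 0.5% Tween 20. Plants regrown under same conditions, watered twice daily; damage scored after 13 days (0 none–5 total).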

[2] = system: Setaria faberi; experiment: as above; parameters: key: 0 = no damage to plant, 5 = total damage to plant; details: Application post-emergence, rate 1000 g/ha, evaluated after 13 days
Method in brief: as §1

[3] = system: zea mays; experiment: as above; parameters: key: 0 = no damage to plant, 5 = total damage to plant; details: Application post-emergence, rate 1000 g/ha, evaluated after 13 days
Method in brief: as §1

[4] = system: Echinochloa crus-galli; experiment: as above; parameters: key: 0 = no damage to plant, 5 = total damage to plant; details: Application post-emergence, rate 1000 g/ha, evaluated after 13 days
Method in brief: as §1

[5] = system: Alopecurus myosuroides; experiment: as above; parameters: key: 0 = no damage to plant, 5 = total damage to plant; details: Application post-emergence, rate 1000 g/ha, evaluated after 13 days
Method in brief: as §1

[6] = system: Solanum nigrum; experiment: as above; details: Application post-emergence, rate 1000 g/ha, evaluated after 13 days
Protocol: Seeds of a variety of test species were sown in standard soil in pots. After 8 days cultivation (post-emergence) under controlled conditions in a glasshouse (at 24/16° C., day/night; 14 hours light; 65% humidity), the plants were sprayed with an aqueous spray solution derived from the formulation of the technical active ingredient in acetone/water (50:50) solution containing 0.5% Tween 20 (polyoxyethelyene sorbitan monolaurate, CAS RN 9005-64-5). The test plants were then grown in a glasshouse under controlled conditions (at 24/16° C., day/night; 14 hours light; 65% humidity) and watered twice daily. After 13 days, the test was evaluated (5=total damage to plant; 0=no damage to plant).
ABUTH=Abutilon theophrasti; SOLNI=Solanum nigrum; AMARE=Amaranthus retroflexus; SETFA=Setaria faberi; ALOMY=Alopecurus myosuroides; ECHCG=Echinochloa crus-galli, ZEAMX=zea mays.

[7] = system: Amaranthus retroflexus; experiment: Pre-emergence herbicidal activity, glasshouse pot test; details: pre-emergence spray, rate 1000 g/ha, evaluated after 13 days, scale 0-5
Method in brief: (§2)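 Damage was rated at 13 days from 0 (none) to 5 (total), in a glasshouse kept at 24/16 °C, 14 h light and 65% humidity with watering twice daily. The aqueous spray of active ingredient in 50:50 acetone/water plus 0.5% Tween 20 was applied to soil one day post-sowing, before emergence.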

[8] = system: Solanum nigrum; experiment: as above; details: pre-emergence spray, rate 1000 g/ha, evaluated after 13 days, scale 0-5
Method in brief: as §2

[9] = system: Setaria faberi; experiment: as above; details: pre-emergence spray, rate 1000 g/ha, evaluated after 13 days, scale 0-5
Method in brief: as §2

[10] = system: zea mays; experiment: as above; details: pre-emergence spray, rate 1000 g/ha, evaluated after 13 days, scale 0-5
Method in brief: as §2

[11] = system: Echinochloa crus-galli; experiment: as above; details: pre-emergence spray, rate 1000 g/ha, evaluated after 13 days, scale 0-5
Method in brief: as §2

[12] = system: Alopecurus myosuroides; experiment: as above; details: pre-emergence spray, rate 1000 g/ha, evaluated after 13 days, scale 0-5
Method in brief: as §2

Compound | AMARE herbicidal damage score [1] | SETFA herbicidal damage score [2] | ZEAMX herbicidal damage score [3] | ECHCG herbicidal damage score [4] | ALOMY herbicidal damage score [5] | SOLNI herbicidal damage score [6] | AMARE damage score, application pre-emergence [7] | SOLNI damage score, application pre-emergence [8] | SETFA damage score, application pre-emergence [9] | ZEAMX damage score, application pre-emergence [10] | ECHCG damage score, application pre-emergence [11] | ALOMY damage score, application pre-emergence [12]
CC1=C(Cl)C(=O)N(c2ccc(C)cn2)C1O (stereo not drawn) [AF69] | 5 | 5 | 3 | 5 | 5 | 5 | 5 | 5 | 4 | 1 | 4 | 3
CC1=C(Cl)C(=O)N(c2ccc(F)cn2)C1O (stereo not drawn) [AF67] | 5 | 4 | 1 | 4 | 3 | 5 | 5 | 3 | 3 | 0 | 1 | 2
CC1=C(Cl)C(=O)N(c2cc(Cl)ccn2)C1O (stereo not drawn) [AF66] | 5 | 5 | 2 | 4 | 4 | 5 | 5 | 5 | 3 | 0 | 2 | 2
